Earlier results, collected in US20250387361A1, “METHODS OF ADMINISTERING GAMMA-HYDROXYBUTYRATE COMPOSITIONS WITH DIVALPROEX SODIUM” (Flamel Ireland Limited, priority 2020, published 2025).
Like-named read-outs stand apart in the source and are kept apart here.

Columns and labels:
[1] = system: rats; settings: cited from earlier work
[2] = system: pregnant rabbits; settings: cited from earlier work
[3] = cited from earlier work; for apparent oral clearance: 25 mg/kg oral
[4] = target: CYP2C9 (Homo sapiens, UniProt P11712); settings: up to 3 mM (378 mcg/mL); cited from earlier work
CYP2C9, sequence (P11712 whole entry): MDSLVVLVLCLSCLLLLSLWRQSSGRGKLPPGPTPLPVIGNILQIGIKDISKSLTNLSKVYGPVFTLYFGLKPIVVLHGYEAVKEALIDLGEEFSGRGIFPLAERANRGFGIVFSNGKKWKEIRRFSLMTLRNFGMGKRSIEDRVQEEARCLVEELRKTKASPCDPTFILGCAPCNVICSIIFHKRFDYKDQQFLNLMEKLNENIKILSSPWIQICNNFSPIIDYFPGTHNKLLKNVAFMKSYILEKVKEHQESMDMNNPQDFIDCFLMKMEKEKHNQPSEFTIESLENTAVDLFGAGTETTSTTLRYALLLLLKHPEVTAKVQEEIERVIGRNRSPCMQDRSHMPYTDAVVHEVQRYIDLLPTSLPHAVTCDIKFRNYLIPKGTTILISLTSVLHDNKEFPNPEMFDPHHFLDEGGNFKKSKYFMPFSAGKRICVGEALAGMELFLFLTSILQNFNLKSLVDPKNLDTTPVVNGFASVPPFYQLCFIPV

[5] = system: bacterial gene mutation; settings: in vitro; cited from earlier work
[6] = system: male and female rats; settings: cited from earlier work
[7] = system: rat; settings: in vivo; cited from earlier work
[8] = system: rats; settings: cited from earlier work; remark: listed apart in the source
[9] = target: CYP2D6 (Homo sapiens, UniProt P10635); settings: up to 3 mM (378 mcg/mL); cited from earlier work
CYP2D6, sequence (P10635 whole entry): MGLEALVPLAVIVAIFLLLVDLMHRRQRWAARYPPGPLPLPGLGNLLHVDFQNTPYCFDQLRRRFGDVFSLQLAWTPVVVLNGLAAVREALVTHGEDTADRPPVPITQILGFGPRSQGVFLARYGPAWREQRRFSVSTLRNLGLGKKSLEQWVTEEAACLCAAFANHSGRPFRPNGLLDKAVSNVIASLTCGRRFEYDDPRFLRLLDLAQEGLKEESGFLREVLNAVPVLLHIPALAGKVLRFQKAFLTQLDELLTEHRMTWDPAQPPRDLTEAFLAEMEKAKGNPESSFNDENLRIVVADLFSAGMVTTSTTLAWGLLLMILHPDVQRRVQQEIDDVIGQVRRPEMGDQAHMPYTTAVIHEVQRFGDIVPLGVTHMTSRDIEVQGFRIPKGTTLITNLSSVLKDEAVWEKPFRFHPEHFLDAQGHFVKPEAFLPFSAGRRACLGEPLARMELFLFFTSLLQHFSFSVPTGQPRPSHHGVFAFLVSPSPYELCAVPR

[10] = target: CYP2C19 (Homo sapiens, UniProt P33261); settings: up to 3 mM (378 mcg/mL); cited from earlier work
CYP2C19, sequence (P33261 whole entry): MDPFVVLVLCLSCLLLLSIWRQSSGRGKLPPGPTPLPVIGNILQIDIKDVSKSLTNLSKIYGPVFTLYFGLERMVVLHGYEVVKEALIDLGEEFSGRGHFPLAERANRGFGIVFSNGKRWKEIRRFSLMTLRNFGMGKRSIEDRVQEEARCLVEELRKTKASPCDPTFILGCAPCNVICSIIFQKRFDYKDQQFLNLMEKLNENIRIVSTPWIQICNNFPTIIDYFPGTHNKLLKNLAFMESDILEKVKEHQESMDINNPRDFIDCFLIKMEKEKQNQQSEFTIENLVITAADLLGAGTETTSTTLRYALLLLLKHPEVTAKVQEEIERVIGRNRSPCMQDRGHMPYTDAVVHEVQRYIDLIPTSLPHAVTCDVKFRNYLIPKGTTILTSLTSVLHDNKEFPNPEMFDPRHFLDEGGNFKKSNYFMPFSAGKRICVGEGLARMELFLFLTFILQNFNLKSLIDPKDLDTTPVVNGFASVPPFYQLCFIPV

[11] = target: T1, CYP1A2 (Homo sapiens, UniProt P05177); settings: up to 3 mM (378 mcg/mL); cited from earlier work
T1 sequence (P05177 1-516): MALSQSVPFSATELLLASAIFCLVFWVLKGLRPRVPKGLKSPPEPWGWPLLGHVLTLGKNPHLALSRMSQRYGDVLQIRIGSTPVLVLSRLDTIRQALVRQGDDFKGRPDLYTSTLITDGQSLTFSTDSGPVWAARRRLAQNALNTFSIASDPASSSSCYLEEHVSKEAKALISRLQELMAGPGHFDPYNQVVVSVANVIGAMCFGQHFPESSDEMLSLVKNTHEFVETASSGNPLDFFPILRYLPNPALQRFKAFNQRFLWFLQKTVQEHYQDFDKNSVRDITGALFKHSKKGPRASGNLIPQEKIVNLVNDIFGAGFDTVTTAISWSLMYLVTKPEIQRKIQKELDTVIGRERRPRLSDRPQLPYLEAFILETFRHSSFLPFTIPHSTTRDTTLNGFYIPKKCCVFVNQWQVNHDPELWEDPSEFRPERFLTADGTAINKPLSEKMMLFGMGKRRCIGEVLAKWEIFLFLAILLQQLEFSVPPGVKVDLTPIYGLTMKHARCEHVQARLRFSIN

[12] = system: CYP3A; settings: up to 3 mM (378 mcg/mL); cited from earlier work
[13] = 18 female and 18 male healthy adults; 4.5 g oral dose; cited from earlier work
[14] = system: rats; settings: cited from earlier work; remark: listed apart in the source
[15] = system: pregnant rats; settings: cited from earlier work
[16] = target: CYP2E1 (Homo sapiens, UniProt P05181); settings: up to 3 mM (378 mcg/mL); cited from earlier work
CYP2E1, sequence (P05181 whole entry): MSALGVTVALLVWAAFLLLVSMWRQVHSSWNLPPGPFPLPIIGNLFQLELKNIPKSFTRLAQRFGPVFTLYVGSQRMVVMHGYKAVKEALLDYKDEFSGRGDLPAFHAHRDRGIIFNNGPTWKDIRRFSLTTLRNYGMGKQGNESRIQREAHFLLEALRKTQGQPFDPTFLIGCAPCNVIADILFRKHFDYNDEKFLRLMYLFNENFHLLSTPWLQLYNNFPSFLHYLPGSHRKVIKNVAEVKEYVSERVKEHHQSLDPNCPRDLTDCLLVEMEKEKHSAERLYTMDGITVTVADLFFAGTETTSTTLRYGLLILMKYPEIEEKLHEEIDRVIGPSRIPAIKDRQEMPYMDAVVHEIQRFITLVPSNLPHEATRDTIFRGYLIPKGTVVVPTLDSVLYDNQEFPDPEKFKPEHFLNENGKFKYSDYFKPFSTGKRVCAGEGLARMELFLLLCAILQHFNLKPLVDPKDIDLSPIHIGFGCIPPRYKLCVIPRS

[17] = system: mammalian cells; settings: in vitro; cited from earlier work

SMILES: O=C([O-])CCCO.[Na+] [sodium oxybate, sodium 4-hydroxybutyrate]
- growth and maturation findings ([1]; at the highest dose tested (900 mg/kg/day)): Reduced body weight gain in males and females and delayed sexual maturation in males
- mortality ([1]; oral 0, 100, 300, or 900 mg/kg/day, postnatal days 21 through 90): mortality was observed at the two highest doses tested
- highest dose tested relative to MRHD of 9 g per night (mg/m^2 basis) ([2]; 1,200 mg/kg/day): ~3 times
- developmental toxicity ([2]; oral 300, 600, or 1,200 mg/kg/day throughout organogenesis): no clear evidence of developmental toxicity
- apparent oral clearance ([3]; Child's Class A cirrhotic patients): 4.5 mL/min/kg
- apparent oral clearance ([3]; Child's Class C cirrhotic patients): 4.1 mL/min/kg
- mean t1/2 ([3]; Class C patients): 59 min
- apparent oral clearance ([3]; healthy adults): 9.1 mL/min/kg
- AUC values in cirrhotic patients vs normal hepatic function ([3]; single oral dose of 25 mg/kg): doubled
- inhibition of CYP2C9 activity [4]: does not significantly inhibit
- bacterial gene mutation [5]: negative
- highest dose tested relative to MRHD on a mg/m^2 basis ([6]; 1,000 mg/kg/day): approximately equal to the MRHD
- effects on fertility ([6]; oral 150, 350, or 1,000 mg/kg/day prior to and throughout mating, females through early gestation): no adverse effects on fertility
- micronucleus [7]: negative
- pre- and postnatal findings ([8]; oral 150, 350, or 1,000 mg/kg/day, at the highest dose tested): increased stillbirths and decreased offspring postnatal viability and body weight gain
- no-effect dose for pre- and postnatal developmental toxicity relative to MRHD (mg/m^2 basis) ([8]; rat, in vivo): less than the MRHD
- inhibition of CYP2D6 activity [9]: does not significantly inhibit
- inhibition of CYP2C19 activity [10]: does not significantly inhibit
- inhibition of CYP1A2 activity [11]: does not significantly inhibit
- inhibition of CYP3A activity [12]: does not significantly inhibit
- gender differences in pharmacokinetics of GHB [13]: no gender differences were detected
- plasma exposure (AUC) at the highest dose tested relative to humans at MRHD of 9 g per night ([14]; 1,000 mg/kg/day): 2 times
- tumors ([14]; oral doses up to 1,000 mg/kg/day for 83 (males) or 104 (females) weeks): no increase in tumors
- highest dose tested relative to MRHD of 9 g per night (mg/m^2 basis) ([15]; 1,000 mg/kg/day): approximately 1 times
- developmental toxicity ([15]; oral 150, 350, or 1,000 mg/kg/day throughout organogenesis): no clear evidence of developmental toxicity
- inhibition of CYP2E1 activity [16]: does not significantly inhibit
- chromosomal aberration [17]: negative
